Experimental data taken from patent US12404232B2, “Compounds and compositions for intracellular delivery of therapeutic agents” (ModernaTX, Inc., priority 2015, dated 2025).

Tests used:
[1] = tested on: mice; assay: Luc expression (total flux) after intramuscular administration; type: in vivo; conditions: 6 hours after intramuscular administration, Luc mRNA and H10 mRNA
Method: The numbers 1-7 in this figure correspond to MC3, Compounds 168-170, and 173-175 respectively.
(§1) In order to monitor how effectively various nanoparticle compositions deliver therapeutic and/or prophylactics to targeted cells, different nanoparticle compositions including a particular therapeutic and/or prophylactic (for example, a modified or naturally occurring RNA such as an mRNA) are prepared and administered to rodent populations. Mice are intravenously, intramuscularly, intraarterially, or intratumorally administered a single dose including a nanoparticle composition with a formulation such as those provided in Example 3. In some instances, mice may be made to inhale doses. Dose sizes may range from 0.001 mg/kg to 10 mg/kg, where 10 mg/kg describes a dose including 10 mg of a therapeutic and/or prophylactic in a nanoparticle composition for each 1 kg of body mass of the mouse. A control composition including PBS may also be employed.
(§2) The total flux (measured by area under the curve, AUC) induced by administration of a formulation including a given lipid relative to that induced by administration of a formulation including MC3 was also measured for several lipids.
Sample formulations including both modified luciferase (Luc) mRNA and H10 mRNA were prepared and administered intramuscularly and the resulting expression and immunogenicity were evaluated simultaneously. Formulations including compounds according to Formula (I), (IA), (II), (IIa), (IIb), (IIc), (IId) or (IIe) were prepared and administered at doses of 0.001 and 0.01 mpk (e.g., doses of 0.0005 mpk of a formulation including Luc mRNA and a formulation including H10 mRNA or doses of 0.005 mpk of a formulation including Luc mRNA and a formulation including H10 mRNA).
Sample formulations including modified luciferase (Luc) mRNA prepared and administered intramuscularly and the resulting expression and immunogenicity were evaluated simultaneously. Formulations including compounds according to Formula (I), (IA), (II), (IIa), (IIb), (IIc), (IId) or (IIe) were prepared and administered at dose of […] 0.01 mpk.
The fluxes measured upon intravenous and intramuscular administration are compared in Table 6. Fluxes are presented as fold increase over that measured for MC3 formulations.

[2] = tested on: rats; assay: Residual lipid levels in liver and spleen of rats (UPLC-MS quantification); type: in vivo, rat; conditions: rats, 2 mpk, 48 h; assuming 300 g rat and 15 g liver
Method: At 48 h liver tissue was harvested for lipid quantification. To pre-weighed tissues, Milli-Q water was added (900 μL water per 100 mg tissue). Tissues were homogenized using an Omni probe homogenizer until uniform. 50 μL of samples and matrix calibration standards were aliquoted into a 96-well plate. 50 μL of blank matrix for matrix blanks and control blanks were aliquoted. 400 μL IS spiking solution were manually added to all samples except matrix blanks. 400 μL of 50:50 ACN:IPA were manually added to matrix blanks. The plate was covered and the samples vortexed and centrifuged for 5 minutes at >3000 rpm. 200 μL of the samples were transferred into a clean 96-well plate for analysis. Samples were analyzed on a Waters Acquity UPLC using a Higgins Analytical Clipeus C8 column ([…], 30×2.1 mm) and a gradient of either 70-95% or 60-95% (Mobile Phase A: 5 mM ammonium formate in 50:50:1 H2O:MeOH:formic acid; Mobile Phase B: 5 mM ammonium formate in 100:1 MeOH:formic acid) over 1.3 min at 1.2 mL/min (column temperature 55° C.). Detection was based on electrospray ionization (ESI) in positive mode using a Sciex API5500 Mass Spectrometer.
The expression of hEPO in rats intravenously administered a nanoparticle composition at a dose of 0.2 mpk or 2.0 mpk was measured at 6 hours. Table 16 summarize the ratio of hEPO expression levels using various nanoparticle compositions as compared to the hEPO expression level using MC3 formulation and the lipid levels in the liver measured 48 hours after administration, as described above. Tables 17 and 18 summarize the lipid levels in the liver and spleen measured 48 hours after administration of Compounds 28, 33, 53, and 54. Liver and spleen levels represent the average values calculated for 3 rats in each group. As is shown in Tables 17 and 18, less than 10% of Compounds 28, 33, 53, and 54 remained in the liver after 48 hours, while greater than 60% of MC3 remained.
Table 19 summarizes the hEPO expression, IP-10 induction, liver and spleen levels, and alanine aminotransferase (ALT) and aspartate aminotransferase (AST) measured upon intravenous administration of formulations including Compounds 48, 49, and 50 to rat at 0.2 and 2 mpk and hEPO mRNA. hEPO concentrations were measured 6 hours after administration, while cytokine induction and liver and spleen levels were measured 48 hours after administration. hEPO and IP-10 concentrations are presented in pg/ml, while liver levels are provided in ng/g. ALT and AST levels are presented in international units.
The expression of hEPO induced by intravenous administration to rats of nanoparticle compositions at various doses was measured at 2, 4, 6, 8, 24, and 48 hour time points. FIGS. 3-6 respectively summarize the hEPO expression measured upon intravenous administration of formulations including Compounds 26, 18, 25, and MC3 to rat at various doses. The lipid levels of Compound 26 in the liver after 48 hours were about 19%.
The expression of hEPO and lipid levels in the liver and spleen in rats intravenously administered a nanoparticle composition at a dose of 0.2 mpk was measured at various timepoints. Compounds 18 and 25 were selected for comparison with MC3. Lipids were formulated according to the standard MC3 formulation described above. Rats were administered intravenously a single 0.2 mpk dose and expression monitored at 0.25, 0.5, 1, 2, 4, 8, 24, and 48 hours after administration.

[3] = Particle size and polydispersity index of nanoparticle compositions (Zetasizer Nano ZS); type: physicochemical
Source text: Nanoparticle compositions may be characterized by a variety of methods. For example, microscopy (e.g., transmission electron microscopy or scanning electron microscopy) may be used to examine the morphology and size distribution of a nanoparticle composition. Dynamic light scattering or potentiometry (e.g., potentiometric titrations) may be used to measure zeta potentials. Dynamic light scattering may also be utilized to determine particle sizes. Instruments such as the Zetasizer Nano ZS (Malvern Instruments Ltd, Malvern, Worcestershire, UK) may also be used to measure multiple characteristics of a nanoparticle composition, such as particle size, polydispersity index, and zeta potential.
A Zetasizer Nano ZS (Malvern Instruments Ltd, Malvern, Worcestershire, UK) can be used to determine the particle size, the polydispersity index (PDI) and the zeta potential of the nanoparticle compositions in 1×PBS in determining particle size and 15 mM PBS in determining zeta potential.
Initial studies were performed to compare the delivery efficiency of nanoparticle compositions including various compounds according to Formula (I), (IA), (II), (IIa), (IIb), (IIc), (IId) or (IIe). The cationic lipid MC3 is a current standard in the art. Accordingly, the standard MC3 formulation including about 50 mol % MC3, about 10 mol % DSPC, about 38.5 mol % cholesterol, and about 1.5 mol % PEG-DMG was used as a basis for this study. Nanoparticle compositions including DSPC as a phospholipid, cholesterol as a structural lipid, PEG-DMG as a PEG lipid, an RNA, and a compound according to Formula (I), (IA), (II), (IIa), (IIb), (IIc), (IId) or (IIe) selected from Compounds 1-159, 168-170, and 173-175 were prepared according to or via methods similar to those described in Examples 1 and 2. The ratios of the lipids were 50:10:38.5:1.5 mol % for the lipid according to Formula (I), (IA), (II), (IIa), (IIb), (IIc), (IId) or (IIe):DSPC:cholesterol:PEG-DMG. The RNA used was an mRNA encoding G5 luciferase (Luc) or G5 hEPO. Tables 1A-1B summarize the content and characteristics of the formulations. […]

[4] = tested on: mice; assay: Luc expression (bioluminescence, total flux) after intravenous administration to mice; type: in vivo; conditions: for AUC (p/s*h): Luc total flux (Table 3D); for 6 h Lipid/MC3 G.M. Luc Expression / AUC (h*p/s): i.v. administration; for 6 h Lipid/MC3 G.M. Luc Expression: geometric mean; for AUC (h*p/s): total Luc flux (Table 3C)
Method: as §1
Upon administration of nanoparticle compositions to mice, dose delivery profiles, dose responses, and toxicity of particular formulations and doses thereof can be measured by enzyme-linked immunosorbent assays (ELISA), bioluminescent imaging, or other methods. For nanoparticle compositions including mRNA, time courses of protein expression can also be evaluated. Samples collected from the rodents for evaluation may include blood, sera, and tissue (for example, muscle tissue from the site of an intramuscular injection and internal tissue); sample collection may involve sacrifice of the animals.
The efficacy of the nanoparticle compositions presented in Table 1A was evaluated with a bioluminescence study. Formulations were administered intravenously to mice (n=6) at a dosage of 0.5 mg/kg (mpk) and bioluminescence measured at 3, 6, and 24 hour time points. The standard MC3 formulation and, in some instances, a control (e.g., a PBS control) were evaluated for comparison. […] In general, flux decreased as time progressed to less than 10% of the initial flux.
as §2
The tolerability and efficacy of nanoparticle compositions to non-human primates was also investigated using sample formulations including Compounds 18, 25, 26, and 48 and MC3 to determine if these compounds are differentiated in terms of protein expression. The formulations were prepared according to the standard MC3 formulation described above and included an hEPO mRNA. Table 30 includes details of the compositions tested, while Table 31 summarizes the relative expression of Luc and hEPO mRNA in mice and rats. Expression was measured 6 hours after administration.

SMILES | AUC (p/s*h) [4] [p/s*h] | 6 h Lipid/MC3 G.M. Luc Expression [4] | AUC (h*p/s) [4] [h*p/s] | further results
CCCCCCCCC(C)OC(=O)CCCCCCCN(CCO)CCCCCCCC(=O)OC(CCCCCCCC)CCCCCCCC (centres unmarked) [Compound 48, decan-2-yl 8-((8-(heptadecan-9-yloxy)-8-oxooctyl)(2-hydroxyethyl)amino)octanoate] | – | – | – | Total flux (p/s) 0.001 mpk Dose ([1]; 0.001 mpk): 4.69E+05 p/s; Total flux (p/s) 0.01 mpk Dose ([1]; 0.01 mpk): 8.78E+06 p/s; % Lipid Remaining in liver, 48 h* 2 mpk [2]: 7.22%
CCCCCCCCCOC(=O)CCCCCCCN(CCCCCCCC(=O)OC(CCCCCCCC)CCCCCCCC)C(CO)CO [Compound 156, Heptadecan-9-yl 8-((1,3-dihydroxypropan-2-yl)(8-(nonyloxy)-8-oxooctyl)amino)octanoate] | 1.170E+011 | – | – | PDI ([3]; nanoparticle composition 50:10:38.5:1.5 mol % (Table 1A)): 0.072; Size (nm) ([3]; nanoparticle composition lipid:DSPC:cholesterol:PEG-DMG 50:10:38.5:1.5 mol %, mRNA encoding Luc or hEPO (Table 1A)): 74.3 nm
CCCCCCCCOP(=O)(OCCCCCCCC)OCCCCCCCN(CCO)CCCCCCCC(=O)OC(C)CCCCCCCC (centres unmarked) [Compound 132, Decan-2-yl 8-((7-((bis(octyloxy)phosphoryl)oxy)heptyl)(2-hydroxyethyl)amino)octanoate] | – | 0.112 | 1.75E+10 | –
CCCCCCCCCOC(=O)CCCCCCCN(CCO)CCCCCCCOP(=O)(OCCCCCCCC)OCCCCCCCC [Compound 131, Nonyl 8-((7-((bis(octyloxy)phosphoryl)oxy)heptyl)(2-hydroxyethyl)amino)octanoate] | – | 1.27 | 9.29E+10 | –
CCCCCCCCC(CCCCCCCC)OC(=O)CCCCCCCN(CCO)CCCCCCCC(=O)OC1CCC(CCCCC)CC1 (centres unmarked) [Compound 66, Heptadecan-9-yl 8-((2-hydroxyethyl)(8-oxo-8-((4-pentylcyclohexyl)oxy)octyl)amino)octanoate] | – | 5.23 | 6.76E+11 | –
CCCCCCCCCOC(=O)CCCCCCCN(CCO)CCN(CCO)CCCCCCCC(=O)OC(CCCCCCCC)CCCCCCCC [Compound 159, Heptadecan-9-yl 8-((2-hydroxyethyl)(2-((2-hydroxyethyl)(8-(nonyloxy)-8-oxooctyl)amino)ethyl)amino)octanoate] | 1.355E+008 | – | – | –
CCCCCCCCCC(=O)OCCCCCCCN(CCO)CCCCCCCC(=O)OC(CCCCCCCC)CCCCCCCC [Compound 96, 7-((8-(Heptadecan-9-yloxy)-8-oxooctyl)(2-hydroxyethyl)amino)heptyl decanoate] | 1.209E+012 | – | – | –
CCCCCCCCCOC(=O)CCCCCCCN(CCO)CCCCCCCCCC(CCCCCCCC)CCCCCCCC [Compound 153, Nonyl 8-((2-hydroxyethyl)(10-octyloctadecyl)amino)octanoate] | 2.697E+011 | – | – | –
CCCCCCCCC(CCCCCCCC)OC(=O)CCCCCCCN(C)CCCCCCCCCCCC(=O)OCCCCC [Compound 150, Pentyl 12-((8-(heptadecan-9-yloxy)-8-oxooctyl)(methyl)amino)dodecanoate] | 2.704E+011 | – | – | –
CCCCCCCCCOC(=O)CCCCCCCN(CCCCCCCC(=O)OC(CCCCCCCC)CCCCCCCC)CCN1CCOCC1 [Compound 103, Heptadecan-9-yl 8-((2-morpholinoethyl)(8-(nonyloxy)-8-oxooctyl)amino)octanoate] | – | 0.171 | 2.4E+10 | –
CCCCCCCCC(CCCCCC)C(=O)OCCCCCCCCCN(CCO)CCCCCCCCCOC(=O)C(CCCCCC)CCCCCCCC (centres unmarked) [Compound 133, ((2-Hydroxyethyl)azanediyl)bis(nonane-9,1-diyl)bis(2-hexyldecanoate)] | – | 4.18 | 3.62E+11 | –
